The results in this text go back to ChEMBL document CHEMBL1127863, “New nonpeptide angiostensin II receptor antagonists. Synthesis, biological properties and structure-activity relationships of 3-substituted 2,6-dialkyl-4-(biphenyll)methylaminopyridine derivatives” (Bioorg Med Chem Lett, 1994).

Test [1] has as its system Rattus norvegicus. Briefly: Effective dose following intravenous administration to conscious rats for inhibition of AII-induced pressor response. In kind it is functional.
Test [2] has as its target Angiotensin II receptor (Cavia porcellus). Briefly: Inhibition of [125I]AII binding to guinea pig adrenal membrane.

SMILES strings stand for the structures.

The molecule `CCc1cc(OCc2ccc(-c3ccccc3-c3nn[nH]n3)cc2)c2c(n1)CCCC2` registered an ED50 in test [1] of 0.39 mg/kg.
Take `COC(=O)c1c(NCc2ccc(-c3ccccc3-c3nn[nH]n3)cc2)cc(C)nc1C`: the IC50 in test [2] is 8.03 nM.
Turning to `Cc1cc(NCc2ccc(-c3ccccc3-c3nn[nH]n3)cc2)c(I)c(C)n1`, in test [2], the IC50 was determined as 3.48 nM. This molecule also came in with an ED50 in test [1] of 0.05 mg/kg.
In test [2], `CCc1cc(NCc2ccc(-c3ccccc3-c3nn[nH]n3)cc2)c(C(=O)OC)c(CC)n1` showed an IC50 of 6.21 nM.
The same measure, in the same setting: with `CCc1cc(NCc2ccc(-c3ccccc3-c3nn[nH]n3)cc2)c(-c2ccc(C)cc2)c(CC)n1` the figure was 24.9 nM.
With `CCc1cc(OCc2ccc(-c3ccccc3-c3nn[nH]n3)cc2)c(I)c(CC)n1`, the IC50 in test [2] stood at 14 nM. This molecule displayed an ED50 in test [1] of 0.44 mg/kg.
Molecule `Cc1cc(NCc2ccc(-c3ccccc3-c3nn[nH]n3)cc2)c(Cl)c(C)n1` yielded an IC50 in test [2] of 6.65 nM. This molecule also returned an ED50 in test [1] of 0.03 mg/kg.
The corresponding values for `CCc1cc(NCc2ccc(-c3ccccc3-c3nn[nH]n3)cc2)c(Cl)c(CC)n1` are 7.58 nM and 0.06 mg/kg.
`CCCCc1nc(Cl)c(CO)n1Cc1ccc(-c2ccccc2-c2nnn[nH]2)cc1` [LOSARTAN] came in with an ED50 in test [1] of 0.65 mg/kg.
For the molecule `CCc1cc(NCc2ccc(-c3ccccc3-c3nn[nH]n3)cc2)c(Br)c(CC)n1`, the IC50 in test [2] is recorded as 3.83 nM. The ED50 in test [1] is 0.09 mg/kg.
With `CCc1cc(NCc2ccc(-c3ccccc3-c3nn[nH]n3)cc2)c(-c2ccc(C(F)(F)F)cc2)c(CC)n1`, the IC50 in test [2] turned out to be 26.4 nM.
The molecule `CCc1cc(NCc2ccc(-c3ccccc3-c3nn[nH]n3)cc2)c(I)c(CC)n1` came in with an IC50 in test [2] of 2.64 nM. For the same molecule, the ED50 in test [1] was 0.13 mg/kg.
`CCc1cc(OCc2ccc(-c3ccccc3-c3nn[nH]n3)cc2)c2ccccc2n1` gave an ED50 in test [1] of 1 mg/kg.

The term ED50 denotes the dose that gives a 50% effect, or the effect in half of the subjects. Read a high ED50 as weaker potency. In general, IC50 refers to the concentration at which inhibition is half-maximal.
